Our source for the MIC values is ChEMBL document CHEMBL4251581, “Synthesis and antimycobacterial activity of triterpeni≿ A-ring azepanes” (Eur J Med Chem, 2018).

SMILES strings stand for the structures. Converted amounts (≈) assume the structure as drawn. Bounds are passed on as bounds.

Assay type in all cases: functional
In assay [1] the test system is Mycobacterium tuberculosis. Briefly: Antimycobacterial activity against isoniazid-resistant Mycobacterium tuberculosis H37Rv INH-R1 harboring katG Y155 truncated mutant.
Assay [2] has as its system Mycobacterium tuberculosis. Briefly: Antimycobacterial activity against rifampicin-resistant Mycobacterium tuberculosis H37Rv RIF-R1 harboring rpoB S522L mutant.
The test system of assay [3] is Mycobacterium tuberculosis. Briefly: Antimycobacterial activity against isoniazid-resistant Mycobacterium tuberculosis H37Rv ATCC 35822 INH-R2.
Assay [4] deals with Mycobacterium tuberculosis. Briefly: Antimycobacterial activity against rifampicin-resistant Mycobacterium tuberculosis H37Rv ATCC 35828 RIF-R2.
Assay [5] relates to Mycobacterium tuberculosis. The experiment in a line: Antimycobacterial activity against fluoroquinolone-resistant Mycobacterium tuberculosis H37Rv FQ-R1 harboring unidentified mutation.
The test system of assay [6] is Mycobacterium tuberculosis. Briefly: Antimycobacterial activity against ethambutol-resistant Mycobacterium tuberculosis H37Rv ATCC 35837.
Assay [7] deals with Mycobacterium tuberculosis. The experiment in a line: Antimycobacterial activity against ethionamide-resistant Mycobacterium tuberculosis H37Rv ATCC 35830.
For assay [8], the system named is Mycobacterium tuberculosis. Briefly: Antimycobacterial activity against kanamycin-resistant Mycobacterium tuberculosis H37Rv ATCC 3582.
The subject of assay [9] is Mycobacterium tuberculosis. The experiment in a line: Antimycobacterial activity against isoniazid-resistant Mycobacterium tuberculosis H37Rv ATCC 35822.
The subject of assay [10] is Mycobacterium tuberculosis. Briefly: Antimycobacterial activity against streptomycin-resistant Mycobacterium tuberculosis H37Rv ATCC 35820.
In assay [11] the test system is Mycobacterium tuberculosis. The experiment in a line: Antimycobacterial activity against rifampicin-resistant Mycobacterium tuberculosis H37Rv ATCC 35828.
Assay [12] concerns Mycobacterium tuberculosis. The experiment in a line: Antimycobacterial activity against ofloxacin-resistant Mycobacterium tuberculosis H37Rv ATCC 35828.
The subject of assay [13] is Mycobacterium tuberculosis. The experiment in a line: Antimycobacterial activity against streptomycin-resistant Mycobacterium tuberculosis H37Rv ATCC 35820 by microplate alamar blue assay. (The colour change of resazurin is a common sign of viable cells or microbes.)

Usually MIC stands for the smallest concentration in the dilution series that meets the test's criterion for growth inhibition. High values mean weaker potency, low ones greater potency. Take `CC1(C)CC[C@]2(COC(=O)/C=C/c3ccccc3)CC[C@]3(C)C(=CC[C@@H]4[C@@]5(C)CCCNC(C)(C)[C@@H]5CC[C@]43C)[C@H]2C1`: the MIC was 13 µg/mL (≈ 22.7 µM) in [1]; 7.4 µg/mL (≈ 12.9 µM) in assay [2]; 12 µg/mL (≈ 21 µM) in [3]; 14 µg/mL (≈ 24.5 µM) in assay [4]; 13 µg/mL (≈ 22.7 µM) in assay [5].

With `C=C(C)[C@@H]1CC[C@]2(CO)CC[C@]3(C)[C@H](CC[C@@H]4[C@@]5(C)CCCNC(C)(C)[C@@H]5CC[C@]43C)[C@@H]12`, the MIC in assay [6] was determined as 5 µg/mL (≈ 11.3 µM); in [7], 10 µg/mL (≈ 22.6 µM); in [8], 10 µg/mL (≈ 22.6 µM); in assay [9], 5 µg/mL (≈ 11.3 µM); in assay [10] it was 5 µg/mL (≈ 11.3 µM).

`COc1ccc(/C=C/C(=O)OC[C@]23CC[C@@H](C)[C@H](C)[C@@H]2C2=CC[C@@H]4[C@@]5(C)CCCNC(C)(C)[C@@H]5CC[C@@]4(C)[C@]2(C)CC3)cc1`: the MIC worked out at 20 µg/mL (≈ 33.2 µM) in [1]; 24 µg/mL (≈ 39.9 µM) in [2]; 17 µg/mL (≈ 28.2 µM) in [3]; 21 µg/mL (≈ 34.9 µM) in assay [4]; 20 µg/mL (≈ 33.2 µM) in assay [5].

For the molecule `C[C@H]1[C@H](C)CC[C@]2(CO)CC[C@]3(C)C(=CC[C@@H]4[C@@]5(C)CCCNC(C)(C)[C@@H]5CC[C@]43C)[C@@H]12`, the MIC in [1] came to 37 µg/mL (≈ 83.8 µM); in [2], 29 µg/mL (≈ 65.6 µM); in assay [3], 39 µg/mL (≈ 88.3 µM); in assay [4] it was 51 µg/mL (≈ 115 µM); in assay [5] it was 34 µg/mL (≈ 77 µM).

Consider `C=C(C)[C@@H]1CC[C@]2(COC(=O)CCC(=O)O)CC[C@]3(C)[C@H](CC[C@@H]4[C@@]5(C)CCCNC(C)(C)[C@@H]5CC[C@]43C)[C@@H]12`, for which the results for the MIC in assay [9], in assay [11] and in assay [12] were 12 µg/mL (≈ 22.1 µM), 6 µg/mL (≈ 11.1 µM) and 6 µg/mL (≈ 11.1 µM), respectively.

Regarding `C[C@H]1[C@H](C)CC[C@]2(COC(=O)/C=C/c3ccccc3)CC[C@]3(C)C(=CC[C@@H]4[C@@]5(C)CCCNC(C)(C)[C@@H]5CC[C@]43C)[C@@H]12`, the MIC came out at 28 µg/mL (≈ 49 µM) in assay [1]; 19 µg/mL (≈ 33.2 µM) in [2]; 15 µg/mL (≈ 26.2 µM) in [3]; 24 µg/mL (≈ 42 µM) in assay [4]; 27 µg/mL (≈ 47.2 µM) in [5].

`C=C(C)[C@@H]1CC[C@]2(COC(=O)/C=C/c3ccccc3)CC[C@]3(C)[C@H](CC[C@@H]4[C@@]5(C)CCCNC(C)(C)[C@@H]5CC[C@]43C)[C@@H]12`: the MIC in assay [9] was determined as 4 µg/mL (≈ 6.99 µM); in assay [11] it was 1 µg/mL (≈ 1.75 µM); in assay [12] it was 1 µg/mL (≈ 1.75 µM).

For `CC1(C)CC[C@]2(CO)CC[C@]3(C)C(=CC[C@@H]4[C@@]5(C)CCCNC(C)(C)[C@@H]5CC[C@]43C)[C@H]2C1`, the MIC came to 34 µg/mL (≈ 77 µM) in assay [1]; 39 µg/mL (≈ 88.3 µM) in [2]; 15 µg/mL (≈ 34 µM) in assay [3]; 69 µg/mL (≈ 156 µM) in [4]; 44 µg/mL (≈ 99.6 µM) in assay [5].

On to `NNC(=O)c1ccncc1` [ISONIAZID], for which the MIC in [11] was 0.02 µg/mL (≈ 0.146 µM); in [1], more than 200 µg/mL; in [2], 1.2 µg/mL (≈ 8.75 µM); in assay [3], 1.4 µg/mL (≈ 10.2 µM); in assay [4], 1.3 µg/mL (≈ 9.48 µM); in [5], 29 µg/mL (≈ 211 µM).

As to `CO[C@H]1/C=C/O[C@@]2(C)Oc3c(C)c(O)c4c(O)c(c(/C=N/N5CCN(C)CC5)c(O)c4c3C2=O)NC(=O)/C(C)=C\C=C\[C@H](C)[C@H](O)[C@@H](C)[C@@H](O)[C@@H](C)[C@H](OC(C)=O)[C@@H]1C` [RIFAMPIN], the MIC amounted to 0.05 µg/mL (≈ 0.0608 µM) in assay [9]; 0.195 µg/mL (≈ 0.237 µM) in assay [12]; 0.015 µg/mL (≈ 0.0182 µM) in assay [1]; 0.29 µg/mL (≈ 0.352 µM) in assay [2]; 100 µg/mL (≈ 122 µM) in assay [3]; 0.62 µg/mL (≈ 0.753 µM) in [4]. This molecule registered a minimal inhibitory concentration (MIC) in [5] of 0.37 µg/mL (≈ 0.45 µM).

Take `C[C@H]1[C@H](C)CC[C@]2(C(=O)O)CC[C@]3(C)C(=CC[C@@H]4[C@@]5(C)CC[C@H](O)C(C)(C)[C@@H]5CC[C@]43C)[C@H]12` [URSOLIC ACID]: the MIC in assay [13] came out at 12.5 µg/mL (≈ 27.4 µM).
